How the values were obtained:
[1] = test system: Hprt −/− (Hprt deficient) mice; assay: Acute toxicity of 6TG, approximate lethal dose; details: for body weight, percentage of the body weight before the experiment / survival: Hprt −/−, 14 days
Hprt +/+ mice = assay: Biochemical analysis of mouse serum after 6TG; format: in vivo; details: 25 mg/kg single i.p., serum 14 days after treatment
Procedure: Serum biochemistry parameters analyzed included blood urea nitrogen (BUN), aspartate amino transferase (AST), alanine amino transferase (ALT), creatine kinase (CK), and alkaline phosphatase (AP). The analyses were performed at Tufts University Veterinary Medical Diagnosis Laboratory with the chemical analyser Hitachi 747. Blood was collected from the posterior vena cava of Hprt deficient mice that were either treated with water, 25, 500, or 720 mg/kg 6TG i.p. and wildtype mice administered 25 mg/kg 6TG.
Hprt wildtype mice were treated with the sublethal dose of 25 mg/kg 6TG and Hprt mutant mice were treated with the sublethal doses of […] 6TG. Serum samples taken 14 days after treatment were evaluated for the levels of blood urea nitrogen (BUN), aspartate amino transferase (AST), alanine amino transferase (ALT), creatine kinase (CK) and alkaline phosphatase (AP). Elevated BUN is associated with dehydratation and/or renal insufficiency. Elevated activities of ALT and AST are characteristic for liver damage particularly necrosis, cirrhosis and/or hepatitis and also muscle trauma or myocardial infarction or myositis. Elevated AP is associated mostly with increased bone marrow metabolism and also with hapatocellular damage during hepatitis. CK is predominantly located in muscles and therefore its increased activities are consequence of muscular trauma, myocardial infarction or myopathic disorders.

Structure (SMILES): Nc1nc(S)c2[nH]cnc2n1 [6TG, 2-amino-6-merkaptopurine]
- approximate lethal dose ([1]; Hprt −/− animals, single i.p.): 1148 mg/kg
- increase of approximate lethal dose over the wildtype strain ([1]; Hprt −/− vs wildtype): 23 fold
- body weight, percentage of the body weight before the experiment ([1]; 25 mg/kg single i.p.): 101%
- survival ([1]; 25 mg/kg single i.p.): surv (surv, animals survived the 14 days period)
- body weight, percentage of the body weight before the experiment ([1]; 50 mg/kg single i.p.): 102%
- survival ([1]; 50 mg/kg single i.p.): surv (surv, animals survived the 14 days period)
- body weight, percentage of the body weight before the experiment ([1]; 100 mg/kg single i.p.): 103%
- survival ([1]; 100 mg/kg single i.p.): surv (surv, animals survived the 14 days period)
- body weight, percentage of the body weight before the experiment ([1]; 150 mg/kg single i.p.): 101%
- survival ([1]; 150 mg/kg single i.p.): surv (surv, animals survived the 14 days period)
- body weight, percentage of the body weight before the experiment ([1]; 225 mg/kg single i.p.): 100%
- survival ([1]; 225 mg/kg single i.p.): surv (surv, animals survived the 14 days period)
- body weight, percentage of the body weight before the experiment ([1]; 338 mg/kg single i.p.): 101%
- survival ([1]; 338 mg/kg single i.p.): surv (surv, animals survived the 14 days period)
- body weight, percentage of the body weight before the experiment ([1]; 508 mg/kg single i.p.): 99%
- survival ([1]; 508 mg/kg single i.p.): surv (surv, animals survived the 14 days period)
- body weight, percentage of the body weight before the experiment ([1]; 720 mg/kg single i.p.): 101%
- survival ([1]; 720 mg/kg single i.p.): surv (surv, animals survived the 14 days period)
- body weight, percentage of the body weight before the experiment ([1]; 1148 mg/kg single i.p.): 69%
- survival ([1]; 1148 mg/kg single i.p.): 8.5 days
- body weight, percentage of the body weight before the experiment ([1]; 1714 mg/kg single i.p.): 93%
- survival ([1]; 1714 mg/kg single i.p.): 4 days
- body weight, percentage of the body weight before the experiment ([1]; 2571 mg/kg single i.p.): 95%
- survival ([1]; 2571 mg/kg single i.p.): 4 days
- ALT (Hprt +/+ mice): 197 ± 66.8 u/l
- AP (Hprt +/+ mice): 50.0 ± 33.4 u/l
- AST (Hprt +/+ mice): 256.3 ± 73.9 u/l
- BUN (Hprt +/+ mice): 45.0 ± 24.6 mg/dL
- CK (Hprt +/+ mice): 73.3 ± 13.9 u/l
